We go through one compound from US7041698B2, “Hepatitis C virus inhibitors” (Bristol-Myers Squibb Company, priority 2002, dated 2006).

In one assay the target is T1, human liver cathepsin B (Homo sapiens, UniProt P07858).
T1 construct: purchased Sigma
Description: Specificity assay, cathepsin B. It counts as biochemical. To be noted: 2 hr pre-incubation at RT. The method, then: (§1) The specificities of compounds of the present invention were determined against a variety of serine proteases: human sputum elastase (HS), porcine pancreatic elastase (PPE) and human pancreatic chymotrypsin and one cysteine protease: human liver cathepsin B. In all cases a 96-well plate format protocol using calorimetric p-nitroaniline (pNA) substrate specific for each enzyme was used as described previously (Patent WO 00/09543) with some modifications to the serine protease assays. All enzymes were purchased from Sigma while the substrates were from Bachem.
(§2) Each assay included a 2 hr enzyme-inhibitor pre-incubation at RT followed by addition of substrate and hydrolysis to ˜30% conversion as measured on a Spectramax Pro microplate reader. Compound concentrations varied from 100 to 0.4 μM depending on their potency. […]
(§3) The percentage of inhibition was calculated using the formula: [1-((UVinh−UVblank)/(UVctl−UVblank))]×100 […]

Assay [1] deals with T2, human sputum elastase (HS) (Homo sapiens, UniProt P08246).
T2 construct: purchased Sigma
T2 sequence (P08246 30-267): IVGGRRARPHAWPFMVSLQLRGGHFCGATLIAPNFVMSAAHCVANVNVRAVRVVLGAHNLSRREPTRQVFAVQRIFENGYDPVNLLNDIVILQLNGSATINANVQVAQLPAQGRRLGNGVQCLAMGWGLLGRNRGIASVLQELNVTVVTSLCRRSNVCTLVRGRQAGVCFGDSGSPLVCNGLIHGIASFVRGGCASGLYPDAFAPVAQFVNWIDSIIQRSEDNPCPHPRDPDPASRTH
In words: Specificity assay, human sputum elastase. It counts as biochemical. The following applies: 2 hr pre-incubation at RT. The method, then: as §1, §2, §3

Each structure is given as a SMILES string.

Take `C=CC1C[C@]1(NC(=O)[C@@H]1C[C@@H](OC(=O)Nc2ccccc2-c2ccccc2)CN1C(=O)[C@@H](NC(=O)OC(C)(C)C)C(C)(C)C)C(=O)NS(=O)(=O)C1CC1` (stereo partly drawn) [Compound 8, BocNH-P3(t-BuGly)-P2(Hyp(O—CO(NH-biphen-2-yl)))-P1(1R,2S VinylAcca)—CONHSO2Cyclopropane]: the IC50 (against human liver cathepsin B; in assay [1]) was greater than 100 µM in each case.

In general, IC50 refers to the concentration at which inhibition is half-maximal. High values mean weaker potency, low ones greater potency.
